Data from ChEMBL document CHEMBL4507319 (2021).

Experiments:
Settings in all cases: Compound concentration 1.0 uM
[1] = target: Cyclin-dependent kinase 1/cyclin B (Homo sapiens) (UniProt P06493+P14635+Q8WWL7+O95067); test: CDK1/cyclinB(h) Eurofins kinase panel; format: protein-complex assay
[2] = target: T1, Serine/threonine-protein kinase ICK (Homo sapiens) (UniProt Q9UPZ9); test: ICK(h) Eurofins kinase panel
T1 sequence (whole entry): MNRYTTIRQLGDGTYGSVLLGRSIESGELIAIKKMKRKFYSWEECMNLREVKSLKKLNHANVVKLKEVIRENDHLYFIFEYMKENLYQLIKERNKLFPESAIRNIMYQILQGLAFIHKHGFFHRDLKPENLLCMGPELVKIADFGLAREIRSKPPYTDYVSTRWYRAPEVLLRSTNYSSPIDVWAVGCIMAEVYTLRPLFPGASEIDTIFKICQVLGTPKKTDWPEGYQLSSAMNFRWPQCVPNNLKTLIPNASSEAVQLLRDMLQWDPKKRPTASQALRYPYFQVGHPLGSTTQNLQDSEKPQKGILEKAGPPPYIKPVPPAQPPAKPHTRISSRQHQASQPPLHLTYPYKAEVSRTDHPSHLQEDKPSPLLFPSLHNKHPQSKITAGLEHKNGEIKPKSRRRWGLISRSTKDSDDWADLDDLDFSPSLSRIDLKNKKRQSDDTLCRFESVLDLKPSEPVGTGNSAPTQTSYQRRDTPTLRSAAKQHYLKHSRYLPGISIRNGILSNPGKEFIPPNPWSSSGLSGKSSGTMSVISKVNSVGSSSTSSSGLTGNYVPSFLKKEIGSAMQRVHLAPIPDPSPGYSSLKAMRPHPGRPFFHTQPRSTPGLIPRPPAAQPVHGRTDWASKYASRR

[3] = target: T2, Serine/threonine-protein kinase STK11 (Homo sapiens) (UniProt Q15831); test: LKB1(h) Eurofins kinase panel
T2 sequence (whole entry): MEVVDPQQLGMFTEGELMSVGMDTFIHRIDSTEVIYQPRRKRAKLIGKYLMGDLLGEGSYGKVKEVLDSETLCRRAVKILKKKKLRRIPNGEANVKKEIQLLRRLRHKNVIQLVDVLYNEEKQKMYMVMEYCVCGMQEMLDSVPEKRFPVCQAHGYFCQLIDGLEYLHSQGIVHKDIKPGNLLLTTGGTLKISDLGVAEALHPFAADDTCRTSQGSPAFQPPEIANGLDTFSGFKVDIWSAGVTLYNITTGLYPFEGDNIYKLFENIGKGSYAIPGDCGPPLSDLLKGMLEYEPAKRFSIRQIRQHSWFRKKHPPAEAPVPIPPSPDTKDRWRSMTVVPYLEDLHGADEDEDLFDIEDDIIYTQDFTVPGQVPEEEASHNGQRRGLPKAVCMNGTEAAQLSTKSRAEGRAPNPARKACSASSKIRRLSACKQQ

[4] = target: T3, Testis-specific serine/threonine-protein kinase 1 (Homo sapiens) (UniProt Q9BXA7); test: TSSK1(h) Eurofins kinase panel
T3 sequence (whole entry): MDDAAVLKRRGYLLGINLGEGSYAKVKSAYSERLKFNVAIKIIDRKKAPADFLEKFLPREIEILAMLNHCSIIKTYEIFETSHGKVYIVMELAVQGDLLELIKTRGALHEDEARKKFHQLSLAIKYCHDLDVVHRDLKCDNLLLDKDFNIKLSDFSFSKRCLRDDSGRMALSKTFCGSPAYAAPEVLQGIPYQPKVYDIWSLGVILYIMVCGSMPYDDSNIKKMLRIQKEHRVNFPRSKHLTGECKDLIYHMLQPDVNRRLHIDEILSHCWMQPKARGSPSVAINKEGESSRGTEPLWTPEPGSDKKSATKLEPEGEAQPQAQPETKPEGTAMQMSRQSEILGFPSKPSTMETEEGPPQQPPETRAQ

[5] = target: Calcium/calmodulin-dependent protein kinase type 1G (Homo sapiens) (UniProt Q96NX5); test: CaMKIgamma(h) Eurofins kinase panel
Sequence of Calcium/calmodulin-dependent protein kinase type 1G (Homo sapiens) (Q96NX5 whole entry): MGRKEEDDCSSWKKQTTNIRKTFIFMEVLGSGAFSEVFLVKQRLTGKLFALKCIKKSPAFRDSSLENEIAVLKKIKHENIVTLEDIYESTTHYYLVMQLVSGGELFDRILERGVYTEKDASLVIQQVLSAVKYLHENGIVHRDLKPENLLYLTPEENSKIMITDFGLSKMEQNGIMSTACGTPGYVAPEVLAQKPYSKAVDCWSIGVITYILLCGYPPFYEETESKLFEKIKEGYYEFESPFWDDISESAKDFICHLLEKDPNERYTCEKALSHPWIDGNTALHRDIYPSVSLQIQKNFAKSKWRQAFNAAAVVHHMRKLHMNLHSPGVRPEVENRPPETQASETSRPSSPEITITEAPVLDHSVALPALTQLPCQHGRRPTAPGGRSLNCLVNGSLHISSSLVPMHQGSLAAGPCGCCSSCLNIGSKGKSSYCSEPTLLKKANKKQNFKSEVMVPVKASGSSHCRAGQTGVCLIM

[6] = target: Protein kinase C beta type (Homo sapiens) (UniProt P05771); test: PKCbetaI (h) Eurofins kinase panel
Sequence of Protein kinase C beta type (Homo sapiens) (P05771 2-671 limits assumed): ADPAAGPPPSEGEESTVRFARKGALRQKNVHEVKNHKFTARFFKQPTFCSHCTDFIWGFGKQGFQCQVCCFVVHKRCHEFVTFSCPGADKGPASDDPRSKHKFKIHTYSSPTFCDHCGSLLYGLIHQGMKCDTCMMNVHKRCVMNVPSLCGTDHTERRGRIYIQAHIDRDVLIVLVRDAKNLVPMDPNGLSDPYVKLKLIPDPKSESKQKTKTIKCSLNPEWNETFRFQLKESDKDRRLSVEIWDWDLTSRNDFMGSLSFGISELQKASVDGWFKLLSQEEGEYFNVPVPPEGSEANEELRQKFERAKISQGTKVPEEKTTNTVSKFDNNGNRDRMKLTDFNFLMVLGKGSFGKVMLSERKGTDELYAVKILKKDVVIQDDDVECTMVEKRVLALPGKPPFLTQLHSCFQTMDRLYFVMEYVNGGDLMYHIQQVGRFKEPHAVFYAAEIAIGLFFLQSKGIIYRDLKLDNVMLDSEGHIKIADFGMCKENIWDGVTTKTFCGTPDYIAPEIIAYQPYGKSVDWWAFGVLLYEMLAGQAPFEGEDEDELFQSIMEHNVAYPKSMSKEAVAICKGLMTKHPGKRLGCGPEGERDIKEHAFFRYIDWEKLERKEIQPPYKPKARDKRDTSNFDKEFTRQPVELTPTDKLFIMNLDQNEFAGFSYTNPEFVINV

[7] = target: Serine-protein kinase ATM (Homo sapiens) (UniProt Q13315); test: ATM(h) Eurofins kinase panel
Sequence of Serine-protein kinase ATM (Homo sapiens) (Q13315 whole entry): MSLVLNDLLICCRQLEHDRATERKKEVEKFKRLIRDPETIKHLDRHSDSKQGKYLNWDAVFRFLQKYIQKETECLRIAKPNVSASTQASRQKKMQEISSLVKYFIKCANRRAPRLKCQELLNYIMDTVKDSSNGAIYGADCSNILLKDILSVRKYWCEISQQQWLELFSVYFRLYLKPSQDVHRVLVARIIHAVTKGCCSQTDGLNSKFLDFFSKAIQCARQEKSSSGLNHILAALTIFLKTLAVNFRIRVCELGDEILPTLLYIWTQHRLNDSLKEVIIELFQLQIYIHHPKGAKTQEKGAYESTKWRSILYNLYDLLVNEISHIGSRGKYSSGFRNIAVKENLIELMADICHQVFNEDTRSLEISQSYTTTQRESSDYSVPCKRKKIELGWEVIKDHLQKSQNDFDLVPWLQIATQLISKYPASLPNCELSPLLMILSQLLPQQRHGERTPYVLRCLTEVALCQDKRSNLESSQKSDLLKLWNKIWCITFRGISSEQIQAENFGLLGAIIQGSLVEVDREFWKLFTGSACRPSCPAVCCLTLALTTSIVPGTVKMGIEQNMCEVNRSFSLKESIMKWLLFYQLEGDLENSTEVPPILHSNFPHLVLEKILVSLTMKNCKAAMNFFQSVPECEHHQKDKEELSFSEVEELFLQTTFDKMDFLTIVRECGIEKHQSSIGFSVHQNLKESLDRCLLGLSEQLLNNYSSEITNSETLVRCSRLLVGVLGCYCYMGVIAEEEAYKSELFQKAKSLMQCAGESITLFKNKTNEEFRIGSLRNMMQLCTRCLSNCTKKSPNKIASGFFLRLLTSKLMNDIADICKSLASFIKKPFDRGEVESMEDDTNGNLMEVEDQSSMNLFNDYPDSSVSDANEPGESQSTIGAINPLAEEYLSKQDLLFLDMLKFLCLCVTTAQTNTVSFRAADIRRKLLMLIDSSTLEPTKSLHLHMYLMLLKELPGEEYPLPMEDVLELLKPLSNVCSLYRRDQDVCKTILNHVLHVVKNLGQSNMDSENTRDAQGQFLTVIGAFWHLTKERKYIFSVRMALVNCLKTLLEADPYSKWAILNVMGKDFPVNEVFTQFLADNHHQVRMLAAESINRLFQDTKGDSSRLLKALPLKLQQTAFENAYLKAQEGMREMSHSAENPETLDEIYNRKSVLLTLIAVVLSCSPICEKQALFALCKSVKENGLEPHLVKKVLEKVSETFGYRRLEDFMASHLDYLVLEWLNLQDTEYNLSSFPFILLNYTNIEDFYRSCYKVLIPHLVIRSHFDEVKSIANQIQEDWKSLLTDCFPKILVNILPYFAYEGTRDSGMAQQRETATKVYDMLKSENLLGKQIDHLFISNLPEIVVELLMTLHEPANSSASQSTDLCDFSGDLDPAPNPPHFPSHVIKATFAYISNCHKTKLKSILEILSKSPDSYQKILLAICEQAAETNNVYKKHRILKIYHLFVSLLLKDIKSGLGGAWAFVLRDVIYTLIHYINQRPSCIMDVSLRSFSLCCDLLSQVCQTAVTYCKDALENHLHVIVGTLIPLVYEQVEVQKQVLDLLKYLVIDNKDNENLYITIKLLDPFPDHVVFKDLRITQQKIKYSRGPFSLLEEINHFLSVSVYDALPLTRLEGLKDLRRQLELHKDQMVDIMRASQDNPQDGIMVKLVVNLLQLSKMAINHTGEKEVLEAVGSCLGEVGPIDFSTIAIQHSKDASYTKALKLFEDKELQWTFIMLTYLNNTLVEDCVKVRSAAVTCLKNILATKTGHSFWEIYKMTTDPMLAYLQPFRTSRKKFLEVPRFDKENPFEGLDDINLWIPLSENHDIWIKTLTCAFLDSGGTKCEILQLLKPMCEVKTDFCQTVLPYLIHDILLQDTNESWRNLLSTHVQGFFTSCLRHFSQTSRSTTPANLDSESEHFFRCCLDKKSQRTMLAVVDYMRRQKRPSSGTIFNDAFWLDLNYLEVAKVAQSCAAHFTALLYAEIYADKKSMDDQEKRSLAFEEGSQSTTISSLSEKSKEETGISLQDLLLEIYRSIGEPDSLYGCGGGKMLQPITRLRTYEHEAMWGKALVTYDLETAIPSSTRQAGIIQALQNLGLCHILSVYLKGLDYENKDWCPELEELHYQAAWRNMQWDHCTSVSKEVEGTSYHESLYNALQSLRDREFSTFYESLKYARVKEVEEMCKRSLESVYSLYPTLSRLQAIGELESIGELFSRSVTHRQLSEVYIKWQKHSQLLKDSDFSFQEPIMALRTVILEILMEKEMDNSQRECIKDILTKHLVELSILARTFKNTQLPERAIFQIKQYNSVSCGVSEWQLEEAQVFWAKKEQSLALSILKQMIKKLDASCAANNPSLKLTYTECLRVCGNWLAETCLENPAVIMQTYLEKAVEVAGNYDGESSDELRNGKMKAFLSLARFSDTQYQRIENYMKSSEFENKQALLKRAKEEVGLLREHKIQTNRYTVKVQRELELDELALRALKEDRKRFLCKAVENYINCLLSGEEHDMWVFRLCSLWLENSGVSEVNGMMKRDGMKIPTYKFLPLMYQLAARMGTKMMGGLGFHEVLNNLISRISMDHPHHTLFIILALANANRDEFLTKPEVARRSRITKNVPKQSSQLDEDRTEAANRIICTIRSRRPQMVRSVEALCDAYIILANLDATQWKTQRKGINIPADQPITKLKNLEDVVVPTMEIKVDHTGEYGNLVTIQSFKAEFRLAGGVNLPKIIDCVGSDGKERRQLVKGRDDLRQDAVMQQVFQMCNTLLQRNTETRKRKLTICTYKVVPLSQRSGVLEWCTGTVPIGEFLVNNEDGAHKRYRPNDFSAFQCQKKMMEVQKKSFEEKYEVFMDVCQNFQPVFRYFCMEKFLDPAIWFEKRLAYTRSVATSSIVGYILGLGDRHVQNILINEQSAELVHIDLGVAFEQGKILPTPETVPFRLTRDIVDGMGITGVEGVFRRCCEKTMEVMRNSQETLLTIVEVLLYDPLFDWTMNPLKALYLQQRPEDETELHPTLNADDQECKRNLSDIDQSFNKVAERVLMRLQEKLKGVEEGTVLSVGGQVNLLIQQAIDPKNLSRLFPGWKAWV

[8] = target: Serine/threonine-protein kinase tousled-like 2 (Homo sapiens) (UniProt Q86UE8); test: TLK2(h) Eurofins kinase panel
Sequence of Serine/threonine-protein kinase tousled-like 2 (Homo sapiens) (Q86UE8 whole entry, looked up): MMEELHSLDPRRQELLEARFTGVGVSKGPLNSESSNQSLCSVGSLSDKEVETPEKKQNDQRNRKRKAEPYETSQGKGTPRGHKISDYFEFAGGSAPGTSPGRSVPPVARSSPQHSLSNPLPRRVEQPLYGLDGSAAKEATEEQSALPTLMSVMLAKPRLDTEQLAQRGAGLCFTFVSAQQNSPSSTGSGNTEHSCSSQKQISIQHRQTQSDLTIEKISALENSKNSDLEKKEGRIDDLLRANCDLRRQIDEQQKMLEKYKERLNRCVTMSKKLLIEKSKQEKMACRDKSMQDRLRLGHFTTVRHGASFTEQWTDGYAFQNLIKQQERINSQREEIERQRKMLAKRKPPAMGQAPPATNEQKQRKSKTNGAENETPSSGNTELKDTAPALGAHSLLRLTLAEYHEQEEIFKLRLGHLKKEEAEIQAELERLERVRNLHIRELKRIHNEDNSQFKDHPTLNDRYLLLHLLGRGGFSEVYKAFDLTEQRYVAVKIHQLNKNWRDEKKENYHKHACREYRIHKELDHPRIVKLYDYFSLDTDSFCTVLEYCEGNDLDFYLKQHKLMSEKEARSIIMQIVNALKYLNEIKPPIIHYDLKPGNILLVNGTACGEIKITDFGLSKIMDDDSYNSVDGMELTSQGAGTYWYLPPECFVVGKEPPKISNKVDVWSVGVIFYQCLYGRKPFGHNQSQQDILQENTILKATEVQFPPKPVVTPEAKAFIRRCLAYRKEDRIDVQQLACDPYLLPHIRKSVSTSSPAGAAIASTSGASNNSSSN

[9] = target: T4, MAP/microtubule affinity-regulating kinase 4 (Homo sapiens) (UniProt Q96L34); test: MARK4(h) Eurofins kinase panel
T4 sequence (whole entry): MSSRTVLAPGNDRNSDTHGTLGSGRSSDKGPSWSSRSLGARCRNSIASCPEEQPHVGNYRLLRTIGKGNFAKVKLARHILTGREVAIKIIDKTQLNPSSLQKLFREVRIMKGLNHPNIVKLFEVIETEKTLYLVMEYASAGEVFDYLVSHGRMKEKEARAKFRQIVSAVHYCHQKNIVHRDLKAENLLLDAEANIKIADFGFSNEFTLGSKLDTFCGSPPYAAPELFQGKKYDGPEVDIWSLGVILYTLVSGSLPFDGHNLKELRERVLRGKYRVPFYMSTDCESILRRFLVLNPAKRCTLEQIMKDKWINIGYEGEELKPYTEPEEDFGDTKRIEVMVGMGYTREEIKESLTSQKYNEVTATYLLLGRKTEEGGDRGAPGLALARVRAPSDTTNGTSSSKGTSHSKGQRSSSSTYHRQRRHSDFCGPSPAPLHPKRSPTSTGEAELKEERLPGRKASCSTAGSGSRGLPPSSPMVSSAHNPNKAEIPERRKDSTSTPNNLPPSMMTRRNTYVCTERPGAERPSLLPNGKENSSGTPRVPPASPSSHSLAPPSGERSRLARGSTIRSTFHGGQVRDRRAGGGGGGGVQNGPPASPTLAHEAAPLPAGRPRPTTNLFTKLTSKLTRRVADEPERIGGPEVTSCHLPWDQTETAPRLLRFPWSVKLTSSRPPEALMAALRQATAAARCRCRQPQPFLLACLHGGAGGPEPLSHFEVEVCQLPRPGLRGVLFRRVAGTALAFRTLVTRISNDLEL

Measured: % residual kinase activity

CCc1ccccc1C(=O)Nc1n[nH]c2c(C)c(F)c(C3C(C#N)=C(C)N(C)C(C)=C3C#N)cc12 [BAY-3827]
inactive: [1] 98% | [2] 99% | [3] 90% | [4] 84% | [5] 92% | [6] 55% | [7] 99% | [8] 96% | [9] 65%
